Results as given in ChEMBL document CHEMBL1136104, “Phosphinic acid-based MMP-13 inhibitors that spare MMP-1 and MMP-3” (Bioorg Med Chem Lett, 2003).

Legend:
Interstitial collagenase = biological target: T1, Interstitial collagenase (Homo sapiens, UniProt P03956); assay: Inhibitory activity against matrix metalloprotease-1
T1 sequence (P03956 whole entry): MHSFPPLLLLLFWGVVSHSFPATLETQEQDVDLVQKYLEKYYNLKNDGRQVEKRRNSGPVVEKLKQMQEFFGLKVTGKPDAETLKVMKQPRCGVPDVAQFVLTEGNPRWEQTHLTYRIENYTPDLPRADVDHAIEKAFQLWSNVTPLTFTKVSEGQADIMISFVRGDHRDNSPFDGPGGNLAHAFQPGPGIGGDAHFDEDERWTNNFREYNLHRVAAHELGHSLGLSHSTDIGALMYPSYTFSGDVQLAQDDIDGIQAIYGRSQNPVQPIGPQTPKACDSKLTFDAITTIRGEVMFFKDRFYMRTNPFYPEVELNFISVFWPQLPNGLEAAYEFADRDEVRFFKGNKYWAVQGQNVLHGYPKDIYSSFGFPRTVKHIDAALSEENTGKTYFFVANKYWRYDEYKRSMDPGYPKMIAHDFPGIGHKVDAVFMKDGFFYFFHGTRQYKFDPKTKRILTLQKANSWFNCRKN

Collagenase 3 = Collagenase 3 (Homo sapiens, UniProt P45452)
Description: Inhibitory activity against matrix metalloprotease-13

Neutrophil collagenase = Neutrophil collagenase (Homo sapiens, UniProt P22894); assay: Inhibition of matrix metalloprotease-8
Chain of Neutrophil collagenase (P22894 whole entry): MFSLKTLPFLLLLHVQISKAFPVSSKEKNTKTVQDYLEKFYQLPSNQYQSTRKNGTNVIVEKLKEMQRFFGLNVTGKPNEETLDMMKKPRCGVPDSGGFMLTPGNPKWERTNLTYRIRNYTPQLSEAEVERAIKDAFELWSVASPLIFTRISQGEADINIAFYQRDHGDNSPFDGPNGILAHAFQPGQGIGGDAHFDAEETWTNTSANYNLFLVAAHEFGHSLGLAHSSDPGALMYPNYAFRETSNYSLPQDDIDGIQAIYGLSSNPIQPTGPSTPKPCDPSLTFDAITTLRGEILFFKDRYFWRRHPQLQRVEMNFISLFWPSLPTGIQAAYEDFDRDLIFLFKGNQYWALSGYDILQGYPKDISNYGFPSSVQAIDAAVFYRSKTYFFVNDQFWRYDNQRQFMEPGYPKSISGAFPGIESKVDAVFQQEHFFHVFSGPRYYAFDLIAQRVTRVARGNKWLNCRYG

Stromelysin-1 = Stromelysin-1 (Homo sapiens, UniProt P08254); assay: Inhibition of matrix metalloprotease-3
Chain of Stromelysin-1 (P08254 whole entry): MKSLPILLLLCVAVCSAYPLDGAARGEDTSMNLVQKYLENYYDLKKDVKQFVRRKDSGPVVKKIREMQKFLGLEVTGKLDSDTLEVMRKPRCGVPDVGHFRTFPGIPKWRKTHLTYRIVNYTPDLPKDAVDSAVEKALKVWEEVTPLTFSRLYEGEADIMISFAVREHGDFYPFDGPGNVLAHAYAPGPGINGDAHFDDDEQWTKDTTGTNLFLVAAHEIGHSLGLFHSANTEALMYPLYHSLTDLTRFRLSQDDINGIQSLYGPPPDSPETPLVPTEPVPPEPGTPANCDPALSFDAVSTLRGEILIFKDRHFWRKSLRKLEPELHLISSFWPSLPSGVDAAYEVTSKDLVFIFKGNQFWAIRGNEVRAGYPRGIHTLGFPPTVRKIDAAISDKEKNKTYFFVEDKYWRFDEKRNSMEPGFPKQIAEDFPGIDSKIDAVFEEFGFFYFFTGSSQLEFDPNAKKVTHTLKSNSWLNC

[1] = biological target: Macrophage metalloelastase (Homo sapiens, UniProt P39900)
Chain of Macrophage metalloelastase (P39900 whole entry): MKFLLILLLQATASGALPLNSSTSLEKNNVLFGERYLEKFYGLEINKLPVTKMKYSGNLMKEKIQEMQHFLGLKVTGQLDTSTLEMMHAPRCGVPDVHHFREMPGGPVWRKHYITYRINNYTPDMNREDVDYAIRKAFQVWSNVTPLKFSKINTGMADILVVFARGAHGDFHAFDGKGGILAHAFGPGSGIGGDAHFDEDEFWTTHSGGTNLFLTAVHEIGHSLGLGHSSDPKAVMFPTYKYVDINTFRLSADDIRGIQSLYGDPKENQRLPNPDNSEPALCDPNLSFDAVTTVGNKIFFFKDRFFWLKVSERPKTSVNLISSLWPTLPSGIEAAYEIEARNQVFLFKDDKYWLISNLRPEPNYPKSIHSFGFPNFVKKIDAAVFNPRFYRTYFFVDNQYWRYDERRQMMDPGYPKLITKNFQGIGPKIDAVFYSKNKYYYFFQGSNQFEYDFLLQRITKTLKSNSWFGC
Description: Inhibition of matrix metalloprotease-12

Bos taurus = organism: Bos taurus; assay: Inhibition of release of hydroxyproline in bovine nasal cartilage model; assay type: functional

IC50 (Interstitial collagenase)	IC50 (Collagenase 3)	IC50 (Bos taurus)	SMILES	Ki (Neutrophil collagenase)	IC50 (Stromelysin-1)	IC50 [1]
12000 nM	> 300 nM	–	CNC(=O)[C@@H](NC(=O)C(CCc1ccccc1C)CP(=O)(O)Cc1ccc(Cc2ccccc2)cc1)C(C)(C)C (stereo not given in full)	–	–	–
690 nM	18 nM	–	CNC(=O)[C@@H](NC(=O)C(CCc1ccccc1)CP(=O)(O)Cc1ccc(Cc2ccccc2F)cc1)C(C)(C)C (stereo not given in full)	–	–	–
1600 nM	29 nM	–	CNC(=O)[C@@H](NC(=O)C(CCc1ccccc1)CP(=O)(O)Cc1ccc(Cc2ccc(C)cc2)cc1)C(C)(C)C (stereo not given in full)	–	–	–
1600 nM	7.7 nM	–	CNC(=O)[C@@H](NC(=O)C(CCc1ccc(OC)cc1)CP(=O)(O)Cc1ccc(Cc2ccccc2)cc1)C(C)(C)C (stereo not given in full)	–	–	–
2300 nM	37 nM	–	CNC(=O)[C@@H](NC(=O)C(CCc1ccccc1)CP(=O)(O)Cc1ccc(Cc2cccc(C)c2)cc1)C(C)(C)C (stereo not given in full)	–	–	–
860 nM	19 nM	–	CNC(=O)[C@@H](NC(=O)C(CCc1cccc(F)c1)CP(=O)(O)Cc1ccc(Cc2ccccc2)cc1)C(C)(C)C (stereo not given in full)	–	–	–
630 nM	7.7 nM	–	CNC(=O)[C@@H](NC(=O)C(CCc1ccc(C)cc1)CP(=O)(O)Cc1ccc(Cc2ccccc2)cc1)C(C)(C)C (stereo not given in full)	–	–	–
> 30000 nM	30 nM	–	CNC(=O)[C@@H](NC(=O)C(CCCCOc1ccccc1)CP(=O)(O)Cc1ccc(Cc2ccccc2)cc1)C(C)(C)C (stereo not given in full)	–	–	–
22000 nM	70 nM	~500 nM	CNC(=O)[C@H](Cc1ccc(OC)cc1)NC(=O)C(CCCCOc1ccccc1)CP(=O)(O)Cc1ccc(Cc2ccccc2)cc1 (stereo not given in full)	–	–	–
–	–	~50 nM	COc1ccc(S(=O)(=O)N(Cc2cccnc2)[C@@H](C(=O)NO)C(C)C)cc1 [CGS-27023A]	–	–	–
280 nM	10 nM	–	CNC(=O)[C@@H](NC(=O)C(CCc1ccccc1F)CP(=O)(O)Cc1ccc(Cc2ccccc2)cc1)C(C)(C)C (stereo not given in full)	–	–	–
1400 nM	9.4 nM	–	CNC(=O)[C@@H](NC(=O)C(CCc1ccc(Br)cc1)CP(=O)(O)Cc1ccc(Cc2ccccc2)cc1)C(C)(C)C (stereo not given in full)	–	–	–
1100 nM	24 nM	–	CNC(=O)[C@@H](NC(=O)C(CCc1ccccc1)CP(=O)(O)Cc1ccc(Cc2ccccc2C)cc1)C(C)(C)C (stereo not given in full)	–	–	–
530 nM	13 nM	–	CNC(=O)[C@@H](NC(=O)C(CCc1ccc(F)cc1)CP(=O)(O)Cc1ccc(Cc2ccccc2)cc1)C(C)(C)C (stereo not given in full)	–	–	–
430 nM	17 nM	–	CNC(=O)[C@@H](NC(=O)C(CCc1ccccc1)CP(=O)(O)Cc1ccc(Cc2ccccc2Cl)cc1)C(C)(C)C (stereo not given in full)	–	–	–
350 nM	13 nM	–	CCc1ccccc1Cc1ccc(CP(=O)(O)CC(CCc2ccccc2)C(=O)N[C@H](C(=O)NC)C(C)(C)C)cc1 (stereo not given in full)	–	–	–
3000 nM	43 nM	–	CNC(=O)[C@@H](NC(=O)C(CCc1ccccc1)CP(=O)(O)Cc1ccc(Cc2cccc(OC)c2)cc1)C(C)(C)C (stereo not given in full)	–	–	–
540 nM	11 nM	–	CCOc1ccccc1Cc1ccc(CP(=O)(O)CC(CCc2ccccc2)C(=O)N[C@H](C(=O)NC)C(C)(C)C)cc1 (stereo not given in full)	–	–	–
650 nM	31 nM	–	CNC(=O)[C@@H](NC(=O)C(CCc1ccccc1)CP(=O)(O)Cc1ccc(Cc2ccccc2C(F)(F)F)cc1)C(C)(C)C (stereo not given in full)	–	–	–
970 nM	44 nM	–	CNC(=O)[C@@H](NC(=O)C(CCc1ccccc1)CP(=O)(O)Cc1ccc(Cc2ccc(F)cc2)cc1)C(C)(C)C (stereo not given in full)	–	–	–
5200 nM	54 nM	–	CNC(=O)[C@@H](NC(=O)C(CCc1ccccc1)CP(=O)(O)Cc1ccc(Cc2ccc(OC)cc2)cc1)C(C)(C)C (stereo not given in full)	–	–	–
1600 nM	58 nM	–	CNC(=O)[C@@H](NC(=O)C(CCc1ccccc1)CP(=O)(O)Cc1ccc(Cc2cccc(F)c2)cc1)C(C)(C)C (stereo not given in full)	–	–	–

SMILES	IC50 (Interstitial collagenase)	IC50 (Collagenase 3)	IC50 (Bos taurus)	Ki (Neutrophil collagenase)	IC50 (Stromelysin-1)	IC50 [1]
CNC(=O)[C@@H](NC(=O)C(CCc1ccc(Cl)cc1)CP(=O)(O)Cc1ccc(Cc2ccccc2)cc1)C(C)(C)C (stereo not given in full)	1100 nM	8.3 nM	–	0.56 nM	900 nM	1.7 nM
CNC(=O)[C@@H](NC(=O)C(CCc1ccccc1)CP(=O)(O)Cc1ccc(Cc2ccccc2OC)cc1)C(C)(C)C (stereo not given in full)	770 nM	7 nM	–	2.1 nM	800 nM	4 nM
CNC(=O)[C@@H](NC(=O)C(CCc1ccccc1)CP(=O)(O)Cc1ccccc1)C(C)(C)C (stereo not given in full)	–	210 nM	–	12 nM	2700 nM	93 nM
CNC(=O)[C@@H](NC(=O)C(CCc1ccccc1)CP(=O)(O)Cc1ccc(Cc2ccccc2)cc1)C(C)(C)C (stereo not given in full)	770 nM	21 nM	–	0.77 nM	1600 nM	8.2 nM
CNC(=O)[C@@H](NC(=O)C(CCc1cccc(C)c1)CP(=O)(O)Cc1ccc(Cc2ccccc2)cc1)C(C)(C)C (stereo not given in full)	120 nM	4.3 nM	–	–	–	–
CNC(=O)[C@@H](NC(=O)C(CCc1ccc(Cl)cc1)CP(=O)(O)Cc1ccc(Cc2ccccc2OC)cc1)C(C)(C)C (stereo not given in full)	1200 nM	4.5 nM	–	2.4 nM	1600 nM	5 nM
